Values quoted from earlier work in patent US20100135984A1, “Anti-inflammatory compositions and methods” (Searete LLC, a limited liability corporation of the State …, priority 2008, published 2010).

Legend:
[1] = mice
proteasome = settings: cultured breast cancer cells; copper-bound
[2] = single agent, infused at 400 mg over one hour
Fyn = Fyn (Homo sapiens, UniProt P06241); settings: at nanomolar concentrations
Chain of Fyn (P06241 whole entry, species assumed): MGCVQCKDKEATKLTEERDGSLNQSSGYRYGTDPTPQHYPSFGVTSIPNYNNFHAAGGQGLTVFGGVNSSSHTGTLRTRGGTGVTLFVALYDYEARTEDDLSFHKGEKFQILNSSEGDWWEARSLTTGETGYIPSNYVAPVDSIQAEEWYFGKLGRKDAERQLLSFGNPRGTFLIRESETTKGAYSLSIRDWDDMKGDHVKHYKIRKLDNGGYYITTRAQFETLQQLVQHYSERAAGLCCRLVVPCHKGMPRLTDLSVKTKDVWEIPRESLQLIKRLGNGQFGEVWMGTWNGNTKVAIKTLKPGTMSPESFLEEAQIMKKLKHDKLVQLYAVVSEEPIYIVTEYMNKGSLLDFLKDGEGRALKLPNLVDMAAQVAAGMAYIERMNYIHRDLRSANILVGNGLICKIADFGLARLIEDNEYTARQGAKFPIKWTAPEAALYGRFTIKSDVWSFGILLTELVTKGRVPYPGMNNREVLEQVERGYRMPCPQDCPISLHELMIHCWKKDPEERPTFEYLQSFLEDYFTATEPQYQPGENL

In the case of `Cl.Cl.Nc1ccccc1Oc1ccc2c(N)nsc2c1` [Example M62812, 3-amino-6-(2-aminophenoxy)-1,2-benzisothiazole dihydrochloride], the “prevention of lethal septic shock” value [1] is given as “prevents lethal septic shock”.
In the case of `CCN(CC)C(=S)SSC(=S)N(CC)CC` [disulfiram, 1-(diethylthiocarbamoyldisulfanyl)-N,N-diethyl-methanethioamide], the proteasomal activity (proteasome) is listed as “inhibits proteasomal activity” and the “inhibition of aldehyde dehydrogenase” value (aldehyde dehydrogenase) is listed as “inhibits aldehyde dehydrogenase without toxicity”.
In the case of `CCN(CC)CCCC(C)Nc1ccnc2cc(Cl)ccc12.O=P(O)(O)O.O=P(O)(O)O` (stereo not drawn) [chloroquine phosphate, 7-chloro-4-[[4-(diethylamino)-1-methylbutyl]amino]quinoline phosphate (1:2)], the tolerability of infusion [2] is listed as “without complication”.
In the case of `Cc1nc(Nc2ncc(C(=O)Nc3c(C)cccc3Cl)s2)cc(N2CCN(CCO)CC2)n1.O` [dasatinib, N-(2-chloro-6-methylphenyl)-2-[[6-[4-(2-hydroxyethyl)-1-piperazinyl]-2-methyl-4-pyrimidinyl]amino]-5-thiazolecarboxamide, monohydrate], the “inhibition of Fyn” value (Fyn) is listed as “inhibits”.
For `CCN(CC)CCCC(C)Nc1ccnc2cc(Cl)ccc12` (stereo not drawn) [Chloroquine], the “inhibition of CpG-induced Src family kinase activation or its dependent cellular responses” value (Src family kinase) is listed as “does not inhibit”.
